Measured values published in PMC5748856 (The Journal of Experimental Medicine, 2018).
“Also recorded” adds a separate entry of the source. Ends that are not written are not given here.

B1: H3.3K27M_(26–35) peptide (peptide)
peptide: RMSAPSTGGV

What was measured:
purified HLA-A*02:01 = purified HLA-A*02:01 (Homo sapiens, UniProt P04439, D140Y/D185E/D98H/E176V/E277Q/G131W/G231S/I119V/I121R/I166T/I218V/L300P/L318F/N151K/N90K/P208A/P217A/Q86G/Q94H/R138H/R169H/T345S); conditions: for HLA-A*02:01 binding (in words): relative to H3.3K27M, cell-free binding assay, performed once (Fig. 4 A)
HLA-A*02:03 (human) = experiment: radioligand binding

Molecule | HLA-A*02:01 binding (in words) (purified HLA-A*02:01) | also measured
RKSAPSTGGV [H3.3WT, reference compound] |  | IC50 (purified HLA-A*02:01): > 38700 nM
RMSAPATGGV [A6] | abrogated; also recorded: diminished | 
XMSAPSTGGV [Cit H3.3] | partially retains its affinity | 
B1 |  | IC50 (HLA-A*02:03 (human)): 747 nM
